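These data come from cells grown in 96-well plates and exposed to compound for 48 hours at five concentrations. The concentration for 50% growth inhibition is given as GI50.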 Calls of active or inactive are those of the source. No stated cut-off is given here; in the data, active = GI50 up to about 1.1 µM and inactive = higher. Square brackets hold non-standard residues; d marks the D form. Peptide text beside a SMILES is read from it. * marks the point of attachment. X26 = COC1=CC(=O)N(C(=O)[C@@H](O*)C(C)C)[C@H]1Cc1ccccc1; NMeV = CN[C@H](C(=O)O)C(C)C; Hexanoyl = CCCCCC(=O)*
Assays:
Assay in all cases: DTP human tumour cell line panel, 48 h
HCC 2998 = tested on: HCC 2998
Hs-578T = tested on: Hs-578T
UO-31 = tested on: UO-31
SK-MEL-2 = tested on: SK-MEL-2
NCI-H522 = tested on: NCI-H522
HL-60 = tested on: HL-60
HOP-92 = tested on: HOP-92
HT-29 = tested on: HT-29
SK-MEL-5 = tested on: SK-MEL-5
T47D = tested on: T47D
SF-268 = tested on: SF-268
OVCAR-5 = tested on: OVCAR-5
NCI/ADR-RES = tested on: NCI/ADR-RES
SF-295 = tested on: SF-295
MDA-MB-435 = tested on: MDA-MB-435
SNB-75 = tested on: SNB-75
RXF 393 = tested on: RXF 393
SNB-19 = tested on: SNB-19
MCF7 = tested on: MCF7
SR = tested on: SR

Measured: GI50

O=C(COc1ccc(OCC(=O)N2C(=O)CC/C2=N\c2ccc(Cl)cc2)cc1)N1C(=O)CS/C1=N\c1ccc(Cl)cc1
inactive: HCC 2998 > 100 µM | Hs-578T > 100 µM | UO-31 37.2 µM | SK-MEL-2 > 100 µM | NCI-H522 63.4 µM | HL-60 37.2 µM | HOP-92 > 100 µM | HT-29 48.4 µM | SK-MEL-5 76 µM | T47D 14.2 µM | SF-268 > 100 µM | OVCAR-5 > 100 µM | NCI/ADR-RES > 100 µM | SF-295 52.8 µM | MDA-MB-435 > 100 µM | SNB-75 18.5 µM | RXF 393 > 100 µM | SNB-19 63.2 µM | MCF7 35.3 µM

CCCCCC(=O)N[C@H](C(=O)N[C@H](C(=O)N(C)[C@H](C(=O)N1CCC[C@H]1C(=O)N1CCC[C@H]1C(=O)O[C@H](C(=O)N1C(=O)C=C(OC)[C@@H]1Cc1ccccc1)C(C)C)C(C)C)C(C)C)C(C)C (Hexanoyl-VV[NMeV]PP-X26)
inactive: HCC 2998 > 100 µM | Hs-578T 68.2 µM | UO-31 40 µM | SK-MEL-2 36.3 µM | NCI-H522 > 100 µM | HL-60 > 100 µM | HOP-92 36.2 µM | HT-29 > 100 µM | T47D > 100 µM | SF-268 > 100 µM | OVCAR-5 93.5 µM | NCI/ADR-RES > 100 µM | SF-295 > 100 µM | MDA-MB-435 36.2 µM | SNB-75 19 µM | RXF 393 23.2 µM | MCF7 59.2 µM

[O-][n+]1c2ccccc2[n+]([O-])c2cc(Br)ccc21
inactive: SR 2.02 µM | HCC 2998 16.5 µM | Hs-578T 35.2 µM | UO-31 9.48 µM | SK-MEL-2 29 µM | NCI-H522 12.9 µM | HL-60 1.31 µM | HT-29 18.6 µM | SK-MEL-5 13.3 µM | T47D 10.2 µM | SF-268 13.7 µM | OVCAR-5 27.8 µM | NCI/ADR-RES 16.1 µM | SF-295 20.6 µM | MDA-MB-435 18.2 µM | SNB-75 26.3 µM | RXF 393 18.1 µM | SNB-19 33.2 µM | MCF7 11.3 µM

CC1=N[C@@](C)(C2CC3C=CC2C3=O)COC1=O (stereo not given in full)
inactive: SR > 100 µM | HCC 2998 > 100 µM | Hs-578T > 100 µM | UO-31 > 100 µM | NCI-H522 > 100 µM | HL-60 > 100 µM | HOP-92 > 100 µM | HT-29 > 100 µM | SK-MEL-5 > 100 µM | T47D > 100 µM | SF-268 > 100 µM | OVCAR-5 > 100 µM | SF-295 > 100 µM | MDA-MB-435 > 100 µM | SNB-75 > 100 µM | RXF 393 > 100 µM | SNB-19 > 100 µM | MCF7 > 100 µM

C=C(Br)CNC(=O)Nc1ccc(Cl)c(Cl)c1
inactive: SR 30.9 µM | HCC 2998 18.5 µM | Hs-578T 22.7 µM | UO-31 11.4 µM | SK-MEL-2 12.6 µM | NCI-H522 18.6 µM | HL-60 15.9 µM | HOP-92 19.9 µM | HT-29 25.1 µM | SK-MEL-5 13.8 µM | T47D 17.9 µM | SF-268 27.3 µM | OVCAR-5 33.1 µM | NCI/ADR-RES 16.6 µM | SF-295 26 µM | MDA-MB-435 20.3 µM | SNB-75 21.3 µM | RXF 393 18.5 µM | SNB-19 21.7 µM

CC(=O)OCC1OC(OC2CC3C(C)(C)C(O)CC[C@]3(C)C3CCC45CC4(CCC5[C@@H](C)CC(O)C(O)C(C)(C)O)[C@]23C)C(O)C(O)C1O (stereo not given in full)
inactive: HCC 2998 > 10 µM | Hs-578T > 10 µM | UO-31 > 10 µM | SK-MEL-2 > 10 µM | NCI-H522 > 10 µM | HL-60 > 10 µM | HOP-92 > 10 µM | HT-29 > 10 µM | SK-MEL-5 > 10 µM | T47D > 10 µM | SF-268 > 10 µM | OVCAR-5 > 10 µM | NCI/ADR-RES > 10 µM | SF-295 > 10 µM | MDA-MB-435 > 10 µM | SNB-75 > 10 µM | RXF 393 > 10 µM | SNB-19 > 10 µM | MCF7 > 10 µM

O=[N+]([O-])C(=C1NCCN1)C(Cl)=C(Cl)Cl
inactive: SR > 100 µM | HCC 2998 > 100 µM | Hs-578T > 100 µM | UO-31 > 100 µM | SK-MEL-2 > 100 µM | NCI-H522 > 100 µM | HL-60 62.2 µM | HT-29 > 100 µM | SK-MEL-5 > 100 µM | T47D > 100 µM | SF-268 > 100 µM | OVCAR-5 > 100 µM | NCI/ADR-RES > 100 µM | SF-295 > 100 µM | MDA-MB-435 > 100 µM | RXF 393 > 100 µM | SNB-19 > 100 µM | MCF7 > 100 µM

O=C(NCCCCN(CCCNC(=O)C(F)(F)F)Cc1ccccc1)C(F)(F)F
inactive: HCC 2998 > 100 µM | Hs-578T > 100 µM | UO-31 > 100 µM | SK-MEL-2 > 100 µM | NCI-H522 > 100 µM | HL-60 > 100 µM | HOP-92 > 100 µM | HT-29 > 100 µM | SK-MEL-5 > 100 µM | T47D > 100 µM | SF-268 > 100 µM | OVCAR-5 > 100 µM | NCI/ADR-RES > 100 µM | SF-295 > 100 µM | MDA-MB-435 > 100 µM | SNB-75 > 100 µM | RXF 393 > 100 µM | SNB-19 > 100 µM | MCF7 > 100 µM

Nc1ccccc1N/C=C\C(=O)C(Cl)(Cl)Cl
inactive: HCC 2998 16.6 µM | Hs-578T 48.8 µM | UO-31 19.2 µM | SK-MEL-2 24.5 µM | NCI-H522 20.2 µM | HL-60 22.3 µM | HOP-92 19 µM | HT-29 18.9 µM | SK-MEL-5 44 µM | T47D 18.6 µM | SF-268 40.3 µM | OVCAR-5 20.1 µM | NCI/ADR-RES 31 µM | SF-295 23.4 µM | MDA-MB-435 14.8 µM | SNB-75 22.6 µM | RXF 393 20.1 µM | SNB-19 34.1 µM | MCF7 14.5 µM

CC1(C)OC(=O)C(C)(C)OC1=O
inactive: SR > 100 µM | Hs-578T > 100 µM | UO-31 > 100 µM | SK-MEL-2 > 100 µM | NCI-H522 > 100 µM | HL-60 > 100 µM | HOP-92 > 100 µM | HT-29 > 100 µM | SK-MEL-5 > 100 µM | T47D > 100 µM | SF-268 > 100 µM | OVCAR-5 > 100 µM | NCI/ADR-RES > 100 µM | SF-295 > 100 µM | MDA-MB-435 > 100 µM | SNB-75 > 100 µM | RXF 393 > 100 µM | SNB-19 > 100 µM | MCF7 > 100 µM

COC[C@@H](/N=C/c1ccc(OC)cc1)C(C)C
inactive: SR > 100 µM | Hs-578T > 100 µM | UO-31 > 100 µM | SK-MEL-2 > 100 µM | NCI-H522 > 100 µM | HT-29 > 100 µM | SK-MEL-5 > 100 µM | T47D > 100 µM | SF-268 > 100 µM | OVCAR-5 > 100 µM | NCI/ADR-RES > 100 µM | SF-295 > 100 µM | MDA-MB-435 > 100 µM | SNB-75 > 100 µM | RXF 393 > 100 µM | MCF7 > 100 µM

CN(Cc1cc(C(C)(C)C)cc(Br)c1O)Cc1cc(C(C)(C)C)cc(Br)c1O
inactive: SR 2.86 µM | Hs-578T 2.65 µM | UO-31 3.61 µM | SK-MEL-2 2.02 µM | NCI-H522 2.84 µM | HL-60 4.2 µM | HOP-92 4.23 µM | HT-29 4.48 µM | SK-MEL-5 2.76 µM | T47D 3.5 µM | SF-268 3.66 µM | OVCAR-5 5.52 µM | NCI/ADR-RES 3.03 µM | SF-295 4.02 µM | MDA-MB-435 4.43 µM | SNB-75 3.66 µM | RXF 393 2.21 µM | SNB-19 6.61 µM | MCF7 1.56 µM

Cc1cnc2sn(-c3ccc(Oc4ccccc4)cc3)c(=O)c2c1
inactive: SR 7.06 µM | HCC 2998 6.47 µM | Hs-578T 21.1 µM | UO-31 19.5 µM | SK-MEL-2 28.3 µM | NCI-H522 5.58 µM | HL-60 4.36 µM | HT-29 18.2 µM | SK-MEL-5 9.59 µM | T47D 14 µM | SF-268 11.8 µM | OVCAR-5 18.4 µM | NCI/ADR-RES 21.7 µM | SF-295 15.5 µM | MDA-MB-435 13.3 µM | SNB-75 17.9 µM | SNB-19 19.7 µM | MCF7 22.4 µM

OCC1OC(n2cnc3c(Cl)nc(Nc4ccc(Cl)c(Cl)c4)nc32)CC1O (stereo not given)
inactive: HCC 2998 7.8 µM | Hs-578T 13.2 µM | UO-31 11.6 µM | SK-MEL-2 9.53 µM | NCI-H522 9.29 µM | HL-60 7.05 µM | HOP-92 8.18 µM | HT-29 7.71 µM | SK-MEL-5 8.34 µM | T47D 13.3 µM | SF-268 12.7 µM | OVCAR-5 13.8 µM | NCI/ADR-RES 10.4 µM | SF-295 7.98 µM | MDA-MB-435 9.38 µM | SNB-75 15.7 µM | RXF 393 10.3 µM | SNB-19 20.5 µM | MCF7 11 µM

O=C1N/C(=N/N=C/C(O)C(O)C(O)C(O)CO)N/C1=C\c1ccco1 (stereo not given)
inactive: Hs-578T > 100 µM | SK-MEL-2 93.8 µM | NCI-H522 81.7 µM | HL-60 > 100 µM | HOP-92 > 100 µM | HT-29 > 100 µM | SK-MEL-5 > 100 µM | T47D > 100 µM | SF-268 > 100 µM | OVCAR-5 > 100 µM | NCI/ADR-RES > 100 µM | SF-295 > 100 µM | MDA-MB-435 > 100 µM | SNB-75 > 100 µM | RXF 393 > 100 µM | SNB-19 > 100 µM | MCF7 > 100 µM

Source: ChEMBL document CHEMBL1201862, “PubChem BioAssay data set” (2004)
